Inconclusive results and toxic doses are left out. Cut-off read from the data, not from the text of the source: active = T/C of 150% or more; inactive = T/C below 125%.
System: L1210 leukemia ip in BDF1 mice, survival T/C
Assay: NCI In Vivo Anticancer Drug Screen. Data for tumor model L1210 Leukemia (intraperitoneal) in B6D2F1 (BDF1) mice
Conditions: endpoint: mean survival time, higher = longer survival
Outline: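 Survival endpoint. Drug-treated group vs vehicle group, expressed as T divided by C. Tumor passaged by transplantation.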

[1] = dose: 100.0 mg/kg/injection, schedule: Q01DX009 (ip), vehicle: Klucel (hydroxypropylcellulose) (HPC)
[2] = dose: 200.0 mg/kg/injection, schedule: Q01DX009 (ip), vehicle: Klucel (hydroxypropylcellulose) (HPC)
[3] = dose: 400.0 mg/kg/injection, schedule: Q01DX009 (ip), vehicle: Klucel (hydroxypropylcellulose) (HPC)
[4] = dose: 100.0 mg/kg/injection, schedule: Q04DX002 (ip), vehicle: saline with Tween-80
[5] = dose: 200.0 mg/kg/injection, schedule: Q04DX002 (ip), vehicle: saline with Tween-80
[6] = dose: 100.0 mg/kg/injection, schedule: Q04DX003 (ip), vehicle: saline with Tween-80
[7] = dose: 200.0 mg/kg/injection, schedule: Q04DX003 (ip), vehicle: saline with Tween-80
[8] = dose: 12.5 mg/kg/injection, schedule: Q04DX003 (ip), vehicle: saline with Tween-80
[9] = dose: 25.0 mg/kg/injection, schedule: Q04DX003 (ip), vehicle: saline with Tween-80

Measured: T/C

O=c1cccc2n1Cc1cc3ccccc3nc1-2
inactive: dose: 37.5 mg/kg/injection, schedule: Q04DX003 (ip), vehicle: saline 95 % of control | dose: 75.0 mg/kg/injection, schedule: Q04DX003 (ip), vehicle: saline 89 % of control

O=C(Nc1cc(C(F)(F)F)ccc1Cl)SCCSC(=O)Nc1cc(C(F)(F)F)ccc1Cl
inactive: [1] 87 % of control | dose: 100.0 mg/kg/injection, schedule: Q04DX003 (ip), vehicle: Klucel (hydroxypropylcellulose) (HPC) 102 % of control | [2] 103 % of control | dose: 200.0 mg/kg/injection, schedule: Q04DX003 (ip), vehicle: Klucel (hydroxypropylcellulose) (HPC) 100 % of control | [3] 93 % of control | dose: 400.0 mg/kg/injection, schedule: Q04DX003 (ip), vehicle: Klucel (hydroxypropylcellulose) (HPC) 97 % of control

NC(=O)Nc1ncn[nH]1
inactive: [4] 95 % of control | [5] 95 % of control | dose: 400.0 mg/kg/injection, schedule: Q04DX002 (ip), vehicle: saline with Tween-80 95 % of control

OC1CC23C(O)CCCC12C1C=CC3C1 (centres undefined)
inactive: dose: 25.0 mg/kg/injection, schedule: Q04DX002 (ip), vehicle: saline with Tween-80 95 % of control | dose: 50.0 mg/kg/injection, schedule: Q04DX002 (ip), vehicle: saline with Tween-80 98 % of control | [4] 98 % of control | [5] 98 % of control

Cc1cc(N(CCCl)CCCl)ccc1C=Nc1ccc2c(c1)ncn2C
inactive: dose: 100.0 mg/kg/injection, schedule: Q04DX002 (ip), vehicle: Klucel (hydroxypropylcellulose) (HPC) 98 % of control | dose: 200.0 mg/kg/injection, schedule: Q04DX002 (ip), vehicle: Klucel (hydroxypropylcellulose) (HPC) 98 % of control | dose: 400.0 mg/kg/injection, schedule: Q04DX002 (ip), vehicle: Klucel (hydroxypropylcellulose) (HPC) 98 % of control

C[N+](C)(C)CC(O)CC#N (centres undefined)
inactive: dose: 12.5 mg/kg/injection, schedule: Q01DX009 (ip), vehicle: Klucel (hydroxypropylcellulose) (HPC) 98 % of control | dose: 25.0 mg/kg/injection, schedule: Q01DX009 (ip), vehicle: Klucel (hydroxypropylcellulose) (HPC) 96 % of control | dose: 50.0 mg/kg/injection, schedule: Q01DX009 (ip), vehicle: Klucel (hydroxypropylcellulose) (HPC) 93 % of control

C=CCC(C#N)(CCN(C)C)c1cccc2ccccc12 (centres undefined)
inactive: [1] 99 % of control | [2] 111 % of control

O=[N+]([O-])c1ccc(O)c(C=NCC2CCCC[N-]2)c1.O=[N+]([O-])c1ccc(O)c(C=NCC2CCCC[N-]2)c1.[Ni+2] (centres undefined)
inactive: [6] 90 % of control | [7] 90 % of control

CSc1ccc(NC(=O)Oc2ccc(NC(C)=O)cc2)cc1
inactive: [1] 98 % of control | [2] 106 % of control | [3] 98 % of control

O=C(Nc1cccc(C(F)(F)F)c1)Oc1ccc(F)cc1Cl
inactive: dose: 25.0 mg/kg/injection, schedule: Q01DX009 (ip), vehicle: gum acacia 100 % of control | dose: 50.0 mg/kg/injection, schedule: Q01DX009 (ip), vehicle: gum acacia 98 % of control | dose: 100.0 mg/kg/injection, schedule: Q01DX009 (ip), vehicle: gum acacia 88 % of control

CCOCc1nc(N)nc(N)c1-c1cccc(Cl)c1
inactive: dose: 100.0 mg/kg/injection, schedule: Q01DX009 (ip), vehicle: saline with Tween-80 104 % of control | dose: 200.0 mg/kg/injection, schedule: Q01DX009 (ip), vehicle: saline with Tween-80 117 % of control

COc1ccc(/C=C/c2cc[n+](C)cc2)cc1
inactive: [8] 97 % of control | [9] 94 % of control | dose: 50.0 mg/kg/injection, schedule: Q04DX003 (ip), vehicle: saline with Tween-80 94 % of control

Cc1nnc(NN)nc1C
inactive: dose: 6.25 mg/kg/injection, schedule: Q01DX009 (ip), vehicle: saline with Tween-80 101 % of control | dose: 6.25 mg/kg/injection, schedule: Q04DX003 (ip), vehicle: saline with Tween-80 100 % of control | dose: 12.5 mg/kg/injection, schedule: Q01DX001 (ip), vehicle: saline with Tween-80 112 % of control | dose: 12.5 mg/kg/injection, schedule: Q01DX009 (ip), vehicle: saline with Tween-80 103 % of control | [8] 103 % of control | dose: 25.0 mg/kg/injection, schedule: Q01DX001 (ip), vehicle: saline with Tween-80 100 % of control | [9] 95 % of control

O=C1CCC(N2C(=O)C3C4CCC(CC4)C3C2=O)C(=O)N1 (centres undefined)
inactive: [6] 104 % of control | [7] 96 % of control | dose: 400.0 mg/kg/injection, schedule: Q04DX003 (ip), vehicle: saline with Tween-80 100 % of control

CCCCCCCCCCC(=O)O
inactive: dose: 100.0 mg/kg/injection, schedule: Q01DX001 (ip), vehicle: Klucel (hydroxypropylcellulose) (HPC) 105 % of control | dose: 200.0 mg/kg/injection, schedule: Q01DX001 (ip), vehicle: Klucel (hydroxypropylcellulose) (HPC) 105 % of control | dose: 300.0 mg/kg/injection, schedule: Q01DX001 (ip), vehicle: Klucel (hydroxypropylcellulose) (HPC) 101 % of control

Reference: PubChem BioAssay AID248 (DTP/NCI, 2004)
